Assay results: article PMC5074465, “Duloxetine Inhibits Microglial P2X4 Receptor Function and Alleviates Neuropathic Pain after Peripheral Nerve Injury” (PLoS ONE, 2016)

Key:
rat P2X4R (rP2X4R) = target: T1, rat P2X4R (rP2X4R) (Rattus norvegicus, UniProt P51577); assay: Fura-2 Ca2+ assay (FDSS […]EX), inhibition of […] ATP response, […] duloxetine; assay type: cell-based
T1 construct: gene P2rx4; rP2X4R stably expressed in 1321N1 cells
T1 sequence (P51577 1-388): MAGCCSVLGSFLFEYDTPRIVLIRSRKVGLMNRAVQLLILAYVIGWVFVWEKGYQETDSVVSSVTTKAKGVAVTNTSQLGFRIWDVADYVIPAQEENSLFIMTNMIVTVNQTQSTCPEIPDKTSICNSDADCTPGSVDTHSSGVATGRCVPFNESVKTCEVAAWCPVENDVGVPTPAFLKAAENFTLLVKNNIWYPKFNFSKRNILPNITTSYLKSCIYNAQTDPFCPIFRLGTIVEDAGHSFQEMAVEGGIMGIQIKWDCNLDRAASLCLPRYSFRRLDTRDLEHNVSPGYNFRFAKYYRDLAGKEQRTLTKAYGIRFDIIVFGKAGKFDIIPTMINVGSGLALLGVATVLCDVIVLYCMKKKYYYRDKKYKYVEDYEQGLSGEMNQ

[1] = target: T2, human P2X4R (P2X4 receptor) (Homo sapiens, UniProt Q99571); assay: cell-based
T2 construct: gene P2RX4
T2 sequence (Q99571 1-388): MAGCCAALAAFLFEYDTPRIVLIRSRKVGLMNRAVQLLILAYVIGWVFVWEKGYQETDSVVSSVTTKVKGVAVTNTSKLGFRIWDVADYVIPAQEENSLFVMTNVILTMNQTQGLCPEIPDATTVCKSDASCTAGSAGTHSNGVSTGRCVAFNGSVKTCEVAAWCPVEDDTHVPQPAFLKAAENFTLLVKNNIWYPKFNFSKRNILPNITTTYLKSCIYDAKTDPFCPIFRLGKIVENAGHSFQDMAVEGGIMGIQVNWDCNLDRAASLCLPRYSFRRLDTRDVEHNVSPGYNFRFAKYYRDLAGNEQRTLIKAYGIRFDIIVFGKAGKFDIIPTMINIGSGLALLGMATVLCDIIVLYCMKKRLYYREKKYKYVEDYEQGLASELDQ

With CNCC[C@H](Oc1cccc2ccccc12)c1cccs1 [duloxetine] the “Fura-2 Ca2+ assay (FDSS 7000EX), inhibition of 10 μM ATP response, 3-30 μM dulox” value (rat P2X4R (rP2X4R)) was “The inhibitory effect of duloxetine was concentration dependent in rP2X4R-1321N1 cells (Fig 1A)” and the IC50 [1] was 1590 nM.
